The target in assay [1] is T1, SpTPC1 (Strongylocentrotus purpuratus, UniProt B8PXJ8).
T1 construct: endogenous full-length protein immunoprecipitated with anti-SpTPC1 serum from solubilized egg membranes (S10P100 fraction); native complex, may carry associated proteins
T1 sequence (B8PXJ8 1-882): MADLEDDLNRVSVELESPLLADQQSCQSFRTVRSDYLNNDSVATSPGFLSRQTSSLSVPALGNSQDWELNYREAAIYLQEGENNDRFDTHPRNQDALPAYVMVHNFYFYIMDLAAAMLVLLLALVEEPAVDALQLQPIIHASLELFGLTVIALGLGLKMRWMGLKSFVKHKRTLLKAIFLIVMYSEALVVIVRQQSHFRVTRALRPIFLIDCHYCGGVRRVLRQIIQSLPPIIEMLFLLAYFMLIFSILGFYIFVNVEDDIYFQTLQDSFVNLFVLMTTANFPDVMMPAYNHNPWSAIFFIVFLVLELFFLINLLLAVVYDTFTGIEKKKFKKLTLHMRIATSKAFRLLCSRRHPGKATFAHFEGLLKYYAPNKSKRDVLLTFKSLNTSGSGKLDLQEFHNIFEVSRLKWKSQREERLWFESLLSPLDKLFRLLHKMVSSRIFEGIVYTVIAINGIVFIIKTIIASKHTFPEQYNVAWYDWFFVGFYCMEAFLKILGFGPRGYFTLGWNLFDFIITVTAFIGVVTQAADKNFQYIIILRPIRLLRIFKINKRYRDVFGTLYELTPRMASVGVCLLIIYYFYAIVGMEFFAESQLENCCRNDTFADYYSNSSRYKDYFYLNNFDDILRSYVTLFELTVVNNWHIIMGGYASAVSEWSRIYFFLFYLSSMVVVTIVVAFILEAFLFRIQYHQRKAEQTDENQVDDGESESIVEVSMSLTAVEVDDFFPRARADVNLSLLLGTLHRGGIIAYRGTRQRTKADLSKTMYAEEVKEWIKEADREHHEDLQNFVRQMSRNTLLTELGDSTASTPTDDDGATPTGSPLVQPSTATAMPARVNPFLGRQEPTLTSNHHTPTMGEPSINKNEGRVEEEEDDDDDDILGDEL
Put plainly: […]NAADP competition binding on immunoprecipitate. The following applies: competitor against [32P]NAADP; immunopurified native complex; K+-dependent irreversible binding.

Assay [2] has as its target T2, SpTPC3 (Strongylocentrotus purpuratus, UniProt B8PXK0).
T2 construct: endogenous full-length protein immunoprecipitated with anti-SpTPC3 serum from solubilized egg membranes (S10P100 fraction); possibly homodimer; may carry associated proteins
T2 sequence (B8PXK0 1-840): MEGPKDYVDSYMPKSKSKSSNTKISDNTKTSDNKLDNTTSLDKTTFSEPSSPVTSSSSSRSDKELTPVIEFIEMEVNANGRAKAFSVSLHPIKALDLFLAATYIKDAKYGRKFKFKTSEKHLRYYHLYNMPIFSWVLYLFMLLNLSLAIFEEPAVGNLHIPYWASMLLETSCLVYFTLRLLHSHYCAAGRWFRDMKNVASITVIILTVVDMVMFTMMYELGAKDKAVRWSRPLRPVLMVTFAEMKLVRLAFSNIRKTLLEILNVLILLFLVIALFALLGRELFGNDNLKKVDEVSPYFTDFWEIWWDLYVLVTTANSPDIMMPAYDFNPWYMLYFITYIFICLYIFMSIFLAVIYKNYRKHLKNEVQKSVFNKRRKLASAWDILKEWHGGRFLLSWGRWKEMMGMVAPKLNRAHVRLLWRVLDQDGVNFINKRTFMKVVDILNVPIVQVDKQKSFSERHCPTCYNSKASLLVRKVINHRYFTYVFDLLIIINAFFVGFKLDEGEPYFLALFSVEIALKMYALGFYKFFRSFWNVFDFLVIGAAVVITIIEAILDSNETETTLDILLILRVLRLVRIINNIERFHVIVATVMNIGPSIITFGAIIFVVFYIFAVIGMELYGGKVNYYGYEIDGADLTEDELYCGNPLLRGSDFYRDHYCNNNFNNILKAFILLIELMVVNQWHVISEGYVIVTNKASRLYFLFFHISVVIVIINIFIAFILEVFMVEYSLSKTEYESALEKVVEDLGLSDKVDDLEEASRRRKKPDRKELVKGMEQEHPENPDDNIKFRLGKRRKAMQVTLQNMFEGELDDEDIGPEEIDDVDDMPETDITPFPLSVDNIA
Described as above. Conditions: competitor against [32P]NAADP; immunopurified native complex; K+-dependent irreversible binding.

Drawing on paper PMC2861162, “Purified TPC Isoforms Form NAADP Receptors with Distinct Roles for Ca^2+ Signaling and Endolysosomal Trafficking” (Current Biology, 2010), this text covers IC50 for one molecule.

For the molecule `Nc1ncnc2c1ncn2[C@@H]1O[C@H](COP(=O)(O)OP(=O)(O)OC[C@H]2O[C@@H]([n+]3cccc(C(=O)O)c3)[C@H](O)[C@@H]2O)[C@@H](O)[C@H]1OP(=O)(O)O` [NAADP], the IC50 (usually the midpoint of a concentration-inhibition curve) in assay [1] is 1.4 nM; in assay [2], 0.9 nM.
